One assay deals with T1, Adenosine receptor A3 (Homo sapiens, UniProt P0DMS8).
T1 sequence (P0DMS8 whole entry): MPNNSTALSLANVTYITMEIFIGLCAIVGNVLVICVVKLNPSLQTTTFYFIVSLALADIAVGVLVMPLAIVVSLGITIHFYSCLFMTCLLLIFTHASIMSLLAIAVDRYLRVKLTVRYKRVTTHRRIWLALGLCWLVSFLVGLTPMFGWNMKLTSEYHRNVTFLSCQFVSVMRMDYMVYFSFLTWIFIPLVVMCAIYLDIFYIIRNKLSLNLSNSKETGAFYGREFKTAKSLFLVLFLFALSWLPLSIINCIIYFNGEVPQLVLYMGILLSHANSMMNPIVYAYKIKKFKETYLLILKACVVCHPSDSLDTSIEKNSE

The target of a further assay is Melanocortin receptor 3 (Homo sapiens, UniProt P41968).
Another assay deals with T2, Thromboxane A2 receptor (Homo sapiens, UniProt P21731).
T2 sequence (P21731 whole entry): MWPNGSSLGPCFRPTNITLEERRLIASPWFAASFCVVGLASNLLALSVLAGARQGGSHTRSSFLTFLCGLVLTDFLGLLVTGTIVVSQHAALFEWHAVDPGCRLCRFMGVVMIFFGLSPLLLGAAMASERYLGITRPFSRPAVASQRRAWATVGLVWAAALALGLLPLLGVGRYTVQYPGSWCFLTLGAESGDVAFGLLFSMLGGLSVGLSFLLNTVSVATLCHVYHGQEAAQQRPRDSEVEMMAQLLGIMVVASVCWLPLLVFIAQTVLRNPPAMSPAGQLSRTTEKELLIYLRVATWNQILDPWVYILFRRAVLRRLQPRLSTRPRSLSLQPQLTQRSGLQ

Assay [1] addresses Growth hormone secretagogue receptor type 1 (Homo sapiens, UniProt Q92847).
The target of a further assay is Vasopressin V2 receptor (Homo sapiens, UniProt P30518).
In the next assay the target is T3, Progesterone receptor (Homo sapiens, UniProt P06401).
T3 sequence (P06401 whole entry): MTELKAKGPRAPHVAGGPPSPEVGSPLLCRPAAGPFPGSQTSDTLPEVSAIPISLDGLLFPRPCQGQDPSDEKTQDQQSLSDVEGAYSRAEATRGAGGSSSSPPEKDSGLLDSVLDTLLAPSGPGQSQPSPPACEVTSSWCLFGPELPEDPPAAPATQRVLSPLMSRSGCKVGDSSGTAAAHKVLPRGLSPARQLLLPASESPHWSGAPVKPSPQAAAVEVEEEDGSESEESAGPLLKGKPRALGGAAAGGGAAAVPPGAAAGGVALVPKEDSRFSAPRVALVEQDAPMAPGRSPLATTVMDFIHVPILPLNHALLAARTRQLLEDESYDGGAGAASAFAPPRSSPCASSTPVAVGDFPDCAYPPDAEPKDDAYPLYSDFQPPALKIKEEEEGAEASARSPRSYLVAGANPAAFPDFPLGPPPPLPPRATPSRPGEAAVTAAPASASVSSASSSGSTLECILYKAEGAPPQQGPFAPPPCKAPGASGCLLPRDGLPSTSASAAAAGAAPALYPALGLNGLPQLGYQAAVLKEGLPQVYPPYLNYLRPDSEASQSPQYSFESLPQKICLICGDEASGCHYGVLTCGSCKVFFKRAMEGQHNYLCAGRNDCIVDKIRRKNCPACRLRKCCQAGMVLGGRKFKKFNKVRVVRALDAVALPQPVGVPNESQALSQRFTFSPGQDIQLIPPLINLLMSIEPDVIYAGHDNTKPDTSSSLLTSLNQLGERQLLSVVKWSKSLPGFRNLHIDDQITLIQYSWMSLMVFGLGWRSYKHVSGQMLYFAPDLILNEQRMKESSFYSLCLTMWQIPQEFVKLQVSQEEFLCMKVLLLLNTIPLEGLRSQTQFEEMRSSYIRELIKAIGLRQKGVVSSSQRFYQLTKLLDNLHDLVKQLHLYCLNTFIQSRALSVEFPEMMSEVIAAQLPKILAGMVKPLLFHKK
In kind it is functional.

The target in assay [2] is T4, 5-hydroxytryptamine receptor 1A (Homo sapiens, UniProt P08908).
T4 sequence (P08908 whole entry): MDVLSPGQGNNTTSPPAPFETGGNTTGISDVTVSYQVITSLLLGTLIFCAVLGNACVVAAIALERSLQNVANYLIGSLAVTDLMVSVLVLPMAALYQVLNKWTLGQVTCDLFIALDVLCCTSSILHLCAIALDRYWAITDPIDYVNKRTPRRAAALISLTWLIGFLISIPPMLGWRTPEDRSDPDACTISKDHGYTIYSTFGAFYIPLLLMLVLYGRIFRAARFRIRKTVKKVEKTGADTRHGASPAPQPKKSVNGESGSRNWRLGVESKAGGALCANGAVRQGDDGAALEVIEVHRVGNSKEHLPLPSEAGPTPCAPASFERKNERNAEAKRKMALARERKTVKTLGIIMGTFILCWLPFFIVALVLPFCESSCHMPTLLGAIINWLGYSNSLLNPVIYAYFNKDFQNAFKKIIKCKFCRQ
In kind it is functional, cell-based.

Assay [3] deals with Beta-2 adrenergic receptor (Homo sapiens, UniProt P07550).

Structures are written as SMILES. Bounds are passed on as bounds.
Also: assay procedure not described here.

Chain of Melanocortin receptor 3 (P41968 whole entry): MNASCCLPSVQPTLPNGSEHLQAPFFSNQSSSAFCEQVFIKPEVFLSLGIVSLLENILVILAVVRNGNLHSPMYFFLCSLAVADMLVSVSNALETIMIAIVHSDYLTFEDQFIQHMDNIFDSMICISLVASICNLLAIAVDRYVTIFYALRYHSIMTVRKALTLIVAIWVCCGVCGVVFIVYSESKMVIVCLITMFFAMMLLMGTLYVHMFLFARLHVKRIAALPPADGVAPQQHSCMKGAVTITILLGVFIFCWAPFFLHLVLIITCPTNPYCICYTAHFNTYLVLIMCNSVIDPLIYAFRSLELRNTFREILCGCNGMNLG
Chain of Vasopressin V2 receptor (P30518 whole entry): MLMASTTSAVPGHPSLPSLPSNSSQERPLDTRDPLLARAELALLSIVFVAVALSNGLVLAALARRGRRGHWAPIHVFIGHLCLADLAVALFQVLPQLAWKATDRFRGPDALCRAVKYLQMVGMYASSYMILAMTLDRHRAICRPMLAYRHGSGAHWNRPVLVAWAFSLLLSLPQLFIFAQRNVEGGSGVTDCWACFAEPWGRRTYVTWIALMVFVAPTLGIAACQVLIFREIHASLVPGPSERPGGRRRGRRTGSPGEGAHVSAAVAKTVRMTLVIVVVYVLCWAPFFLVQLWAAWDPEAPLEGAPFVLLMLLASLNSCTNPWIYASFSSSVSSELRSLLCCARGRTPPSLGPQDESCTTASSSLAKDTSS
Chain of Beta-2 adrenergic receptor (P07550 whole entry): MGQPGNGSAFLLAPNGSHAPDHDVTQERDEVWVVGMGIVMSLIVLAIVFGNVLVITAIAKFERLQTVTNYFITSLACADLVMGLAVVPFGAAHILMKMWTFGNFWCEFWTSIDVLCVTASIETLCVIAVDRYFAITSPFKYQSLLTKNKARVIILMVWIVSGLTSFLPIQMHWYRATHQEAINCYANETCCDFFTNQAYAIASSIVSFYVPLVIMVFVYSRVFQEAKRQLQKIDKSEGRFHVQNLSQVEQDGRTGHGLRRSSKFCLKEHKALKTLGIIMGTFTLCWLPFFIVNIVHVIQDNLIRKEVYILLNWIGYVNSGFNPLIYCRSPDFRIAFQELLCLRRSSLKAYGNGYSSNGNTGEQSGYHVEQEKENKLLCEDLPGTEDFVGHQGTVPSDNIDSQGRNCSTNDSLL
Chain of Growth hormone secretagogue receptor type 1 (Q92847 whole entry): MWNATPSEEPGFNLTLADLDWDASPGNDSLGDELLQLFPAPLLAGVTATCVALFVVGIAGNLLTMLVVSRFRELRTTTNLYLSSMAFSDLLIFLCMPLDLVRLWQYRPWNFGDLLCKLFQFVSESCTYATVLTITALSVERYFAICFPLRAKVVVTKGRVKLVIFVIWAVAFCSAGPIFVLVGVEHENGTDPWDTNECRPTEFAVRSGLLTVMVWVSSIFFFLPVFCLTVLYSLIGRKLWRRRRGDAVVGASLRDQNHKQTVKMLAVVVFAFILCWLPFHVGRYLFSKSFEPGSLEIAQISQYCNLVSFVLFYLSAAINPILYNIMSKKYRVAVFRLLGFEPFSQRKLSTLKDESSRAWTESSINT

The term AC50 denotes the concentration at which the activity in the assay is half-maximal. With `O=C1NCCN1CCN1CCC(c2cn(-c3ccc(F)cc3)c3ccc(Cl)cc23)CC1` [SERTINDOLE], the AC50 on Adenosine receptor A3 was 16 µM; on Melanocortin receptor 3, 12 µM; at Thromboxane A2 receptor, over 30 µM; in assay [1] it was 28 µM; at Vasopressin V2 receptor it was 27 µM; on Progesterone receptor, over 30 µM.

`CCCCN1CCCCC1C(=O)Nc1c(C)cccc1C` (centres undefined) [BUPIVACAINE]: the AC50 (at Adenosine receptor A3; at Melanocortin receptor 3; at Thromboxane A2 receptor; in assay [1]; on Vasopressin V2 receptor; in assay [2]) was over 30 µM each time. The AC50 on Progesterone receptor is over 30 µM.

On to `NC(=O)C[S+]([O-])C(c1ccccc1)c1ccccc1` (centres undefined) [MODAFINIL], for which the AC50 on Adenosine receptor A3 was 13.4 µM; at Melanocortin receptor 3, 21.2 µM; on Thromboxane A2 receptor, over 30 µM; in assay [1], over 30 µM; in assay [3], over 10 µM; on Vasopressin V2 receptor, over 30 µM. In assay [2], the concentration at half-maximal activity (AC50) is over 10 µM.

Consider `COc1c(C)c2c(c(O)c1C/C=C(\C)CCC(=O)OCCN1CCOCC1)C(=O)OC2` [MYCOPHENOLATE MOFETIL], for which the AC50 (at Adenosine receptor A3; at Melanocortin receptor 3; at Thromboxane A2 receptor; in assay [1]; in assay [3]; at Vasopressin V2 receptor) was over 30 µM each time. For the same molecule, the AC50 on Progesterone receptor is over 30 µM.

Consider `CCN1CCC[C@H]1CNC(=O)c1cc(S(N)(=O)=O)ccc1OC` [LEVOSULPIRIDE], for which the AC50 (on Adenosine receptor A3; on Melanocortin receptor 3; at Thromboxane A2 receptor; in assay [1]; in assay [3]; at Vasopressin V2 receptor) was over 30 µM throughout.

Take `COc1ccccc1OCC(O)COC(N)=O` (centres undefined) [METHOCARBAMOL]: the AC50 (on Adenosine receptor A3; on Melanocortin receptor 3; on Thromboxane A2 receptor; in assay [1]; in assay [3]; on Vasopressin V2 receptor) was over 10 µM each time. Besides, the AC50 in assay [2] is over 10 µM; at Progesterone receptor, over 30 µM.

As for `COc1c(N2CCNC(C)C2)c(F)cc2c(=O)c(C(=O)O)cn(C3CC3)c12` (centres undefined) [GATIFLOXACIN], the AC50 (on Adenosine receptor A3; at Melanocortin receptor 3; at Thromboxane A2 receptor; in assay [1]; in assay [3]; on Vasopressin V2 receptor) was over 10 µM each time. Also, the AC50 (in assay [2]; on Progesterone receptor) was over 10 µM each time.

Regarding `C#CCN(C)[C@H](C)Cc1ccccc1` [SELEGILINE], the AC50 (at Adenosine receptor A3; on Melanocortin receptor 3; at Thromboxane A2 receptor; in assay [1]; in assay [3]; at Vasopressin V2 receptor) was over 10 µM in each case. In addition, the AC50 at Progesterone receptor was over 10 µM.

Consider `C[C@]12CCC(=O)C=C1CC[C@@H]1[C@@H]2CC[C@@]2(C)[C@H]1CC[C@]2(C)O` [METHYLTESTOSTERONE], for which the AC50 (on Adenosine receptor A3; at Melanocortin receptor 3; on Thromboxane A2 receptor; in assay [1]; in assay [3]; on Vasopressin V2 receptor) was over 30 µM in each case. Also, the AC50 in assay [2] was over 30 µM; at Progesterone receptor, 0.2 µM.

Regarding `CN[C@@H]1[C@H](O)[C@H](NC)[C@H]2O[C@@]3(O)C(=O)C[C@@H](C)O[C@H]3O[C@@H]2[C@H]1O` [SPECTINOMYCIN], the AC50 (at Adenosine receptor A3; at Melanocortin receptor 3; at Thromboxane A2 receptor; in assay [1]; in assay [3]; at Vasopressin V2 receptor) was over 10 µM throughout. The values for the AC50 (in assay [2]; at Progesterone receptor) were over 30 µM and over 10 µM, respectively.

Consider `COc1ccc2c(c1)c(CC(=O)OCC(=O)O)c(C)n2C(=O)c1ccc(Cl)cc1` [ACEMETACIN], for which the concentration at half-maximal activity (AC50) (on Adenosine receptor A3; on Melanocortin receptor 3; on Thromboxane A2 receptor; in assay [1]; in assay [3]; at Vasopressin V2 receptor) was over 30 µM throughout. The results for the AC50 (in assay [2]; at Progesterone receptor) were 25 µM and over 30 µM, respectively.

As for `Cc1cc2c(OCC(CNC(C)(C)C)OC(=O)c3ccccc3)cccc2[nH]1` (centres undefined) [BOPINDOLOL], the AC50 is over 30 µM at Adenosine receptor A3; over 30 µM on Melanocortin receptor 3; over 30 µM on Thromboxane A2 receptor; 16 µM in assay [1]; 0.0064 µM in assay [3]; over 30 µM at Vasopressin V2 receptor. Further, the AC50 in assay [2] is 0.028 µM; at Progesterone receptor, over 30 µM.

On to `CCNC(C)Cc1cccc(C(F)(F)F)c1` (centres undefined) [FENFLURAMINE], for which the AC50 (on Adenosine receptor A3; at Melanocortin receptor 3; at Thromboxane A2 receptor; in assay [1]; at Vasopressin V2 receptor) was over 30 µM each time.

Take `CCCOc1ccc(C(=O)OCCN(CC)CC)cc1N` [PROPARACAINE]: the AC50 (on Adenosine receptor A3; on Melanocortin receptor 3; in assay [1]; at Vasopressin V2 receptor; at Progesterone receptor) was over 30 µM in each case.

On to `CC[C@]1(O)C[C@@H]2CN(CCc3c([nH]c4ccccc34)[C@@](C(=O)OC)(c3cc4c(cc3OC)N(C)[C@H]3[C@@](O)(C(N)=O)[C@H](O)[C@]5(CC)C=CCN6CC[C@]43[C@@H]65)C2)C1` [VINDESINE], for which the AC50 at Adenosine receptor A3 is over 30 µM; at Melanocortin receptor 3, over 30 µM; at Thromboxane A2 receptor, over 30 µM; in assay [1] it was 6.5 µM; in assay [3] it was over 30 µM; at Vasopressin V2 receptor, over 30 µM. Further, the half-maximal activity concentration (AC50) on Progesterone receptor is over 30 µM.

On to `CC(C)c1c(C(=O)Nc2ccccc2)c(-c2ccccc2)c(-c2ccc(F)cc2)n1CC[C@@H](O)C[C@@H](O)CC(=O)O` [ATORVASTATIN], for which the half-maximal activity concentration (AC50) at Adenosine receptor A3 is over 30 µM; at Melanocortin receptor 3, over 30 µM; on Thromboxane A2 receptor, over 30 µM; in assay [1], over 30 µM; in assay [3], over 10 µM; on Vasopressin V2 receptor, over 30 µM. In addition, the half-maximal activity concentration (AC50) in assay [2] is over 10 µM.

Turning to `CCN(CC)CCOC(=O)c1ccc(N)cc1` [PROCAINE], the AC50 at Adenosine receptor A3 was over 30 µM; on Melanocortin receptor 3 it was over 30 µM; in assay [1] it was over 30 µM; in assay [3] it was over 10 µM; at Vasopressin V2 receptor it was over 30 µM.

Turning to `Nc1nc2ccc(OC(F)(F)F)cc2s1` [RILUZOLE], the AC50 (on Adenosine receptor A3; on Melanocortin receptor 3; in assay [1]; at Vasopressin V2 receptor; in assay [2]; on Progesterone receptor) was over 30 µM each time.

Regarding `Cc1cccc(C)c1NC(=O)C1CCCCN1C` (centres undefined) [MEPIVACAINE], the half-maximal activity concentration (AC50) (on Adenosine receptor A3; on Melanocortin receptor 3; in assay [1]; at Vasopressin V2 receptor; in assay [2]; at Progesterone receptor) was over 30 µM each time.

For the origin of these results see ChEMBL document CHEMBL5291721, “A preclinical secondary pharmacology resource illuminates target-adverse drug reaction associations of marketed drugs” (Nat Commun, 2023).
